In patent EP0323590A2, “Carbazoyl derivatives” (ONO PHARMACEUTICAL CO., LTD., priority 1987, dated 1989):
Counter-ions that a name gives are not always drawn.

System: Maillard reaction
Assay: Inhibitory effect on Maillard reaction in vitro (BSA + glucose incubation, fluorescence)
Format: biochemical
Conditions: 6mM test compound, 100 mg/ml bovine serum albumin (BSA), 200 mM glucose, 0.5 M phosphatic buffer pH 7.38, a week at 37°C; fluorescence excitation 360nm, emission 450 nm
Experimental: In order to evaluate the inhibitory effect on Maillard reaction in vitro, of the compounds in the present invention, the measurement was carried out under conditions described below.
After incubation, the incubated medium was diluted 100 times with the same phosphatic buffer solution, and the fluorescence spectrum was measured at the excitation maximum of 360nm and the emission maximum of 450 nm.
Inhibition percentage of the test compounds was calculated by the following equation: [formula] ΔI₁ : fluorescence of test compounds ΔI₂ : fluorescence of (test compounds + glucose), ΔI₃ : fluorescence of (test compounds + BSA), ΔI₄ : fluorescence of (test compounds + BSA + glucose), ΔI : fluorescence of (BSA + glucose)

Compound	Inhibitory effect (%) (6mM)
NNC(=O)c1ccccc1N [Example 2(a), 2-aminobenzohydrazide]	100
NC(N)=O [Urea, reference compound]	28
Cl.NNC(=O)NCc1ccccc1 [1(f), 4-benzylsemicarbazide hydrochloride]	90
CN(N)C(=O)Nc1ccccc1.Cl [1(q), 2-methyl-4-phenylsemicarbazide hydrochloride]	74
NNC(=O)NC1CCCCC1 [1(a), 4-cyclohexyl semicarbozide]	100
CC(=O)NN [acetohydrazide]	35
NNC(=O)C1CCCC1 [2(i), cyclopentancarbonylhydrozine]	37
NNC(=O)Nc1cccc2ccccc12 [1(j), 4-(1-naphthyl) semicorbazide hydrochloride]	100
NNC(=O)CCc1ccccc1 [2(f), 3-phenylpropionohydrazide]	100
Cl.NNC(=O)Nc1ccc(Cl)cc1 [1(e), 4-(4-chlorophenyl) semicarbazide hydrochloride]	65
Cl.Cl.NNC(=O)NCCCCCCNC(=O)NN [1(i), 4-[6-(3-aminoureido)hexyl]semicarbazide dihydrochloride]	100
